Source: patent EP3382005A2, “EX VIVO MODEL FOR NEURODEGENERATIVE DISEASES” (Neuro-Bio Ltd, priority 2017, dated 2018)
Square brackets hold non-standard residues; d marks the D form. Peptide text beside a SMILES is read from it. Phe(4-COOH) = N[C@@H](Cc1ccc(C(=O)O)cc1)C(=O)O; 2Nal = N[C@@H](Cc1ccc2ccccc2c1)C(=O)O; cisHyp = O=C(O)[C@@H]1C[C@H](O)CN1

Tests used:
[1] = biological target: T1, alpha7 nicotinic receptor (Rattus norvegicus, UniProt Q05941); assay: Calcium influx test in PC12 cells; format: cell-based; conditions: compound alone, higher doses 1 µM to 10 µM
T1 construct: endogenous in cells; host or cells: PC12 cells

PC12 cells = assay: Cell viability test

T1 sequence (Q05941 23-502): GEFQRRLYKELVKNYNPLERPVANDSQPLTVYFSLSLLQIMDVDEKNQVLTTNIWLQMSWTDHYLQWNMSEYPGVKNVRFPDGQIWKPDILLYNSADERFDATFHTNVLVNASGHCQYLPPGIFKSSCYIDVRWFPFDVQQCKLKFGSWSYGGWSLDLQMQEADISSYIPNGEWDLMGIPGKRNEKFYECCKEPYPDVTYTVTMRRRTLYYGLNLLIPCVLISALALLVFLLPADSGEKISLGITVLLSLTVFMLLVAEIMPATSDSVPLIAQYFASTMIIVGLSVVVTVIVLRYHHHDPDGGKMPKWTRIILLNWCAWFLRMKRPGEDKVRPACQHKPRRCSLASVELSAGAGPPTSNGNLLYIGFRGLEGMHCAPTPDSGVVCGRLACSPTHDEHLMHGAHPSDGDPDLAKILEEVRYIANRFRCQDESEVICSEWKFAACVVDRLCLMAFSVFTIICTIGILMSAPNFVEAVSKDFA

## CC(=O)N[C@@H](Cc1ccc2ccccc2c1)C(=O)N[C@@H](Cc1ccc(C(=O)O)cc1)C(=O)N1C[C@@H](O)C[C@H]1C(N)=O [Tri01, 4-((S)-2-((S)-2-acetamido-3-(naphthalen-2-yl)propanamido)-3-((2S,4S)-2-carbamoyl-4-hydroxypyrrolidin-1-yl)-3-oxopropyl)benzoate] (Ac-[2Nal]-[Phe(4-COOH)]-[cisHyp]-NH2)
[1]
  calcium influx by the specific alpha7 agonist PNU282987: inactive
PC12 cells; compound alone, 0.1µM to 10µM
  PC12 cell viability: toxic in a concentration-dependent manner
PC12 cells; in the presence of T30 1µM
  PC12 cell viability: potentiates the toxicity induced by T30
